Data from patent publication US11566007B2, “Ras inhibitors” (Revolution Medicines, Inc., priority 2019, dated 2023).

What was measured:
[1] = biological target: NRAS WT (Homo sapiens (Human), UniProt P01111+P62937); assay: Ras-Raf (BRAF RBD) disruption / FRET / MOA assay, NRAS WT; assay type: biochemical; details: read-out: IC50* NRAS WT FRET data
In short: (§1)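 TR-FRET disruption of nucleotide-loaded Ras binding to BRAF RBD via compound-driven ternary complex with cyclophilin A. Compound as 10-point 3-fold series from 30 μM final, 3 h at 25° C, then anti-His Eu-W1024 (10 nM) and anti-GST allophycocyanin (50 nM) for 1.5 h. IC50 from decreased FRET ratio versus DMSO.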

[2] = biological target: KRAS Q61H (Homo sapiens (Human), UniProt P01116+P62937, Q61H); assay: Ras-Raf (BRAF RBD) disruption / FRET / MOA assay, KRAS Q61H; assay type: biochemical; details: Ras-Raf disruption/FRET/MOA assay; class symbols; read-out: KRAS Q61H FRET data IC50
In short: as §1

[3] = biological target: KRAS G12S (Homo sapiens (Human), UniProt P01116+P62937, G12S); assay: Ras-Raf (BRAF RBD) disruption / FRET / MOA assay, KRAS G12S; assay type: biochemical; details: Ras-Raf disruption/FRET/MOA assay; class symbols; read-out: KRAS G12S FRET data IC50
In short: (§2)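 Compounds, top final concentration 30 μM in 10-point 3-fold series, incubated 3 hours at 25° C with nucleotide-loaded Ras, cyclophilin A and BRAF RBD.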

[4] = biological target: K-Ras G12C (Homo sapiens (Human), UniProt P01116+P62937, G12C); assay: Ras-Raf (BRAF RBD) disruption / FRET / MOA assay, KRAS G12C; assay type: biochemical; details: KRAS G12C; Ras-Raf disruption/FRET/MOA assay; read-out: IC50* KRAS G12C FRET data
In short: as §2

[5] = biological target: KRAS WT (Homo sapiens (Human), UniProt P01116+P62937); assay: Ras-Raf (BRAF RBD) disruption / FRET / MOA assay, KRAS WT; assay type: biochemical; details: read-out: IC50* KRAS WT FRET data
In short: as §2

[6] = system: NCI-H358 (K-Ras G12C); assay: CellTiter-Glo cell viability assay, NCI-H358; assay type: cell-based, human; details: Homo sapiens, NCI-H358, 120 h, NCI-H358, 5-day treatment; class symbols; read-out: Additional H358 Cell Viability assay data (K-Ras G12C, IC50)
In short: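 Steps: compound dispensed into wells holding cells; incubation to day 5; ~30 min room-temperature equilibration; luminescence read; sample signal divided by mean DMSO signal, times 100; four-parameter logistic curve fit.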

[7] = biological target: KRAS G12D (Homo sapiens (Human), UniProt P01116+P62937, G12D); assay: Ras-Raf (BRAF RBD) disruption / FRET / MOA assay, KRAS G12D; assay type: biochemical; details: Ras-Raf disruption/FRET/MOA assay; class symbols; read-out: KRAS G12D FRET data IC50
In short: as §2

[8] = biological target: NRAS G12C (Homo sapiens (Human), UniProt P01111+P62937, G12C); assay: Ras-Raf (BRAF RBD) disruption / FRET / MOA assay, NRAS G12C; assay type: biochemical; details: read-out: IC50* NRAS G12C FRET data
In short: as §2

[9] = biological target: NRAS Q61R (Homo sapiens (Human), UniProt P01111+P62937, Q61R); assay: Ras-Raf (BRAF RBD) disruption / FRET / MOA assay, NRAS Q61R; assay type: biochemical; details: NRAS Q61R; Ras-Raf disruption/FRET/MOA assay; read-out: IC50* NRAS Q61R FRET data
In short: as §1

[10] = biological target: NRAS Q61K (Homo sapiens (Human), UniProt P01111+P62937, Q61K); assay: Ras-Raf (BRAF RBD) disruption / FRET / MOA assay, NRAS Q61K; assay type: biochemical; details: NRAS Q61K; Ras-Raf disruption/FRET/MOA assay; read-out: IC50* NRAS Q61K FRET data
In short: as §1

[11] = biological target: KRAS G12V (Homo sapiens (Human), UniProt P01116+P62937, G12V); assay: Ras-Raf (BRAF RBD) disruption / FRET / MOA assay, KRAS G12V; assay type: biochemical; details: read-out: IC50* KRAS G12V FRET data
In short: as §2

KRAS Q61H, sequence (P01116-2 other isoform, or with tags, fused parts or gaps Q61H): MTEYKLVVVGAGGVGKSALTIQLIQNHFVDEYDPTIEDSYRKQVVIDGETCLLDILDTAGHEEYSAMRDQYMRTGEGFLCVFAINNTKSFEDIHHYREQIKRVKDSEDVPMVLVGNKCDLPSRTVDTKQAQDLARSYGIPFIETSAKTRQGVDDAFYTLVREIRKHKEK
KRAS Q61H, sequence (P62937 whole entry): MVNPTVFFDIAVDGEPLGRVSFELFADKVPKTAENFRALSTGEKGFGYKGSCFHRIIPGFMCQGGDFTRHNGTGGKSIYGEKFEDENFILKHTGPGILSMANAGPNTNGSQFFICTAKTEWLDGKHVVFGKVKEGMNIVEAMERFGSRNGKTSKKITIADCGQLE
KRAS WT, sequence (P01116-2 other isoform, or with tags, fused parts or gaps): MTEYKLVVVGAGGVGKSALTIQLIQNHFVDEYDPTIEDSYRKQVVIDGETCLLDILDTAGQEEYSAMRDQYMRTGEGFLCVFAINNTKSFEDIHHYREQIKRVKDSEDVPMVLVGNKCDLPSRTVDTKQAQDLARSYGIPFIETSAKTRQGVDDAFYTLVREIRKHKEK
KRAS WT, sequence (P62937 whole entry): as the sequence (P62937 whole entry) above
NRAS G12C, sequence (P01111 whole entry G12C): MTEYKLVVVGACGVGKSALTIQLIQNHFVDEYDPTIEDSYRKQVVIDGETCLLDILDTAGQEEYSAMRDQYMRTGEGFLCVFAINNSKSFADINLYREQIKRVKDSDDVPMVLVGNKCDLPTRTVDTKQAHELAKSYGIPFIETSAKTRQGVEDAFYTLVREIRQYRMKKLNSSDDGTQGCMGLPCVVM
NRAS G12C, sequence (P62937 whole entry): as the sequence (P62937 whole entry) above
KRAS G12D, sequence (P01116-2 other isoform, or with tags, fused parts or gaps G12D): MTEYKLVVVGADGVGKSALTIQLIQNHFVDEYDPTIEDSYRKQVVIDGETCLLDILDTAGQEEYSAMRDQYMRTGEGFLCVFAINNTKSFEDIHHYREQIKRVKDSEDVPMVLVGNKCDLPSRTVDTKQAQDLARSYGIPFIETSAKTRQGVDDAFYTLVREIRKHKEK
KRAS G12D, sequence (P62937 whole entry): as the sequence (P62937 whole entry) above
NRAS Q61R, sequence (P01111 whole entry Q61R): as the sequence (P01111 whole entry G12C) above, with C12G, Q61R counted along it
NRAS Q61R, sequence (P62937 whole entry): as the sequence (P62937 whole entry) above
NRAS Q61K, sequence (P01111 whole entry Q61K): as the sequence (P01111 whole entry G12C) above, with C12G, Q61K counted along it
NRAS Q61K, sequence (P62937 whole entry): as the sequence (P62937 whole entry) above
NRAS WT, sequence (P01111 whole entry): as the sequence (P01111 whole entry G12C) above, with C12G counted along it
NRAS WT, sequence (P62937 whole entry): as the sequence (P62937 whole entry) above
KRAS G12S, sequence (P01116-2 other isoform, or with tags, fused parts or gaps G12S): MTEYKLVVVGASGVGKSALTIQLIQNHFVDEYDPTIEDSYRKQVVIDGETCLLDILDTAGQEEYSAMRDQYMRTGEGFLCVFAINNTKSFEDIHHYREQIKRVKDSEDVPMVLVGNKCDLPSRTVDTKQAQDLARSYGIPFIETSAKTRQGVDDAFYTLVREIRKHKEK
KRAS G12S, sequence (P62937 whole entry): as the sequence (P62937 whole entry) above
K-Ras G12C, sequence (P01116-2 other isoform, or with tags, fused parts or gaps G12C): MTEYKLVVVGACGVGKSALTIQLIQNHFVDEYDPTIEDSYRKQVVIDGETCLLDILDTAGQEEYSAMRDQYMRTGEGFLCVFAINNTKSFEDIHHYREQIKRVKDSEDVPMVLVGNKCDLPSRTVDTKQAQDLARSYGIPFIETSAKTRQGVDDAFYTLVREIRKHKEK
K-Ras G12C, sequence (P62937 whole entry): as the sequence (P62937 whole entry) above
KRAS G12V, sequence (P01116-2 other isoform, or with tags, fused parts or gaps G12V): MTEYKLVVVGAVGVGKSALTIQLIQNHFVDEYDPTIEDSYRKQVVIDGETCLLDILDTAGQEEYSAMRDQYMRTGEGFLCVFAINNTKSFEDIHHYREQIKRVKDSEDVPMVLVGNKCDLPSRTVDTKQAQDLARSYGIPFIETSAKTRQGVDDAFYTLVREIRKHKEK
KRAS G12V, sequence (P62937 whole entry): as the sequence (P62937 whole entry) above

SMILES	IC50 [1]	IC50 [2]	IC50 [3]	IC50 [4]	IC50 [5]	IC50 [6]	IC50 [7]	IC50 [8]	IC50 [9]	IC50 [10]	IC50 [11]
C=CC(=O)N1CC[C@H](C(=O)N(C)[C@H](C(=O)N[C@H]2CC3=NC=C(O3)c3ccc4c(c3)c(c(-c3cccnc3[C@H](C)OC)n4CC)CC(C)(C)COC(=O)[C@@H]3CCCN(N3)C2=O)C(C)C)C1 (atropisomer, axis not shown) [Example A278]	1000 to 10000 nM	1000 to 10000 nM	1000 to 10000 nM	100 to 1000 nM	1000 to 10000 nM	100 to 1000 nM	> 10000 nM	100 to 1000 nM	> 10000 nM	1000 to 10000 nM	1000 to 10000 nM
CCn1c(-c2cccnc2[C@H](C)OC)c2c3cc(ccc31)-c1cccc(c1)C[C@H](NC(=O)[C@H](C(C)C)N(C)C(=O)[C@H]1CCN(C(=O)C#CC(C)(C)N(C)C)C1)C(=O)N1CCC[C@H](N1)C(=O)OCC(C)(C)C2 (atropisomer, axis not shown) [Example A290]	1000 to 10000 nM	1000 to 10000 nM	1000 to 10000 nM	< 10 nM	1000 to 10000 nM	< 10 nM	> 10000 nM	< 10 nM	1000 to 10000 nM	1000 to 10000 nM	1000 to 10000 nM
C=CS(=O)(=O)N1CCC2(CCN([C@H](C(=O)N[C@H]3Cc4cc(O)cc(c4)-c4ccc5c(c4)c(c(-c4cccnc4[C@H](C)OC)n5CC)CC(C)(C)COC(=O)[C@@H]4CCCN(N4)C3=O)C(C)C)C2=O)CC1 (atropisomer, axis not shown) [Example A299]	10 to 100 nM	< 10 nM	10 to 100 nM	< 10 nM	10 to 100 nM	< 10 nM	1000 to 10000 nM	< 10 nM	100 to 1000 nM	10 to 100 nM	100 to 1000 nM
CO[C@@H](C)c1ncccc1-c1c2c3cc(ccc3n1CC(F)(F)F)-c1csc(n1)C[C@H](NC(=O)[C@@H](COC1CN(C(=O)C#CC(C)(C)N(C)C)C1)C(C)C)C(=O)N1CCC[C@H](N1)C(=O)OCC(C)(C)C2 (atropisomer, axis not shown) [Example A343]	1000 to 10000 nM	1000 to 10000 nM	1000 to 10000 nM	< 10 nM	1000 to 10000 nM	< 10 nM	> 10000 nM	< 10 nM	1000 to 10000 nM	1000 to 10000 nM	1000 to 10000 nM
C=CC(=O)N1CC[C@H](C(=O)N(C)[C@H](C(=O)N[C@H]2Cc3cc(cc(C(F)F)c3)-c3ccc4c(c3)c(c(-c3cc(N5CCN(C)CC5)cnc3[C@H](C)OC)n4CC(F)(F)F)CC(C)(C)COC(=O)[C@@H]3CCCN(N3)C2=O)C(C)C)C1 (atropisomer, axis not shown) [Example A357]	100 to 1000 nM	100 to 1000 nM	100 to 1000 nM	100 to 1000 nM	100 to 1000 nM	< 10 nM	1000 to 10000 nM	100 to 1000 nM	100 to 1000 nM	1000 to 10000 nM	100 to 1000 nM
CO[C@@H](C)c1ncccc1-c1c2c3cc(ccc3n1CC(F)(F)F)-c1cccc(c1)C[C@H](NC(=O)[C@@H](COC1CN(C(=O)C#CC(C)(C)N(C)C)C1)C(C)C)C(=O)N1CCC[C@H](N1)C(=O)OCC(C)(C)C2 (atropisomer, axis not shown) [Example A376]	1000 to 10000 nM	1000 to 10000 nM	1000 to 10000 nM	< 10 nM	1000 to 10000 nM	< 10 nM	> 10000 nM	< 10 nM	> 10000 nM	> 10000 nM	1000 to 10000 nM
C=CC(=O)N1C[C@H](C)N(C(=O)N(C)[C@H](C(=O)N[C@H]2Cc3nc(cs3)-c3ccc4c(c3)c(c(-c3cccnc3[C@H](C)OC)n4CC)CC(C)(C)COC(=O)[C@@H]3CCCN(N3)C2=O)C(C)C)C[C@@H]1C (atropisomer, axis not shown) [Example A385]	10 to 100 nM	10 to 100 nM	10 to 100 nM	10 to 100 nM	10 to 100 nM	< 10 nM	100 to 1000 nM	10 to 100 nM	10 to 100 nM	10 to 100 nM	100 to 1000 nM
C=CC(=O)N1CCC12CN(C(=O)N(C)[C@H](C(=O)N[C@H]1Cc3nc(cs3)-c3ccc4c(c3)c(c(-c3cccnc3[C@H](C)OC)n4CC)CC(C)(C)COC(=O)[C@@H]3CCCN(N3)C1=O)C(C)C)C2 (atropisomer, axis not shown) [Example A393]	100 to 1000 nM	100 to 1000 nM	100 to 1000 nM	100 to 1000 nM	100 to 1000 nM	10 to 100 nM	1000 to 10000 nM	100 to 1000 nM	100 to 1000 nM	100 to 1000 nM	1000 to 10000 nM
CCn1c(-c2cccnc2[C@H](C)OC)c2c3cc(ccc31)-c1cc(F)cc(c1)C[C@H](NC(=O)[C@@H](COC1CN(C(=O)C#CC(C)(C)N(C)C)C1)C(C)C)C(=O)N1CCC[C@H](N1)C(=O)OCC(C)(C)C2 (atropisomer, axis not shown) [Example A403]	> 10000 nM	1000 to 10000 nM	> 10000 nM	< 10 nM	> 10000 nM	< 10 nM	> 10000 nM	10 to 100 nM	> 10000 nM	> 10000 nM	1000 to 10000 nM
C=CC(=O)N1CC2(CCN2C(=O)N(C)[C@H](C(=O)N[C@H]2Cc3nc(cs3)-c3ccc4c(c3)c(c(-c3cccnc3[C@H](C)OC)n4CC)CC(C)(C)COC(=O)[C@@H]3CCCN(N3)C2=O)C(C)C)C1 (atropisomer, axis not shown) [Example A407]	10 to 100 nM	10 to 100 nM	100 to 1000 nM	< 10 nM	100 to 1000 nM	< 10 nM	100 to 1000 nM	< 10 nM	10 to 100 nM	10 to 100 nM	100 to 1000 nM
C=CC(=O)N1CC[C@H](C(=O)N(C)[C@H](C(=O)N[C@H]2CC3=NN=C(O3)c3ccc4c(c3)c(c(-c3cccnc3[C@H](C)OC)n4CC)CC(C)(C)COC(=O)[C@@H]3CCCN(N3)C2=O)C(C)C)C1 (atropisomer, axis not shown) [Example A447]	1000 to 10000 nM	1000 to 10000 nM	1000 to 10000 nM	100 to 1000 nM	1000 to 10000 nM	100 to 1000 nM	> 10000 nM	100 to 1000 nM	> 10000 nM	> 10000 nM	1000 to 10000 nM
C=CC(=O)Nc1ncc(C(=O)N(C)[C@H](C(=O)N[C@H]2Cc3cccc(c3)-c3ccc4c(c3)c(c(-c3cccnc3[C@H](C)OC)n4CC)CC(C)(C)COC(=O)[C@@H]3CCCN(N3)C2=O)C(C)C)n1C (atropisomer, axis not shown) [Example A474]	1000 to 10000 nM	100 to 1000 nM	1000 to 10000 nM	< 10 nM	1000 to 10000 nM	< 10 nM	> 10000 nM	< 10 nM	1000 to 10000 nM	1000 to 10000 nM	1000 to 10000 nM
C=CC(=O)N1CC[C@H](C(=O)N2CC[C@H](C)[C@H]2C(=O)N[C@H]2Cc3cccc(c3)-c3ccc4c(c3)c(c(-c3cccnc3[C@H](C)OC)n4CC)CC(C)(C)COC(=O)[C@@H]3CCCN(N3)C2=O)C1 (atropisomer, axis not shown) [Example A494]	1000 to 10000 nM	100 to 1000 nM	> 10000 nM	100 to 1000 nM	1000 to 10000 nM	100 to 1000 nM	> 10000 nM	100 to 1000 nM	1000 to 10000 nM	1000 to 10000 nM	> 10000 nM
